Laboratory results reported in article PMC10586543 (Advanced functional materials, 2023).

How the values were obtained:
human recombinant MMP-9 = human recombinant MMP-9 (Homo sapiens, UniProt P14780); assay: In vitro specificity reaction with off-target protease; conditions: free peptide; 15 nM human recombinant MMP-9; TCNB buffer; 37 °C, 1 h; fluorescence (Figure S2)
human α-thrombin = human α-thrombin (Homo sapiens, UniProt P00734); assay: as above; conditions: free peptide; 13.5 nM human α-thrombin; TCNB buffer; 37 °C, 1 h; fluorescence (Figure S2)

Sequence of human recombinant MMP-9 (P14780 107-444 limits assumed): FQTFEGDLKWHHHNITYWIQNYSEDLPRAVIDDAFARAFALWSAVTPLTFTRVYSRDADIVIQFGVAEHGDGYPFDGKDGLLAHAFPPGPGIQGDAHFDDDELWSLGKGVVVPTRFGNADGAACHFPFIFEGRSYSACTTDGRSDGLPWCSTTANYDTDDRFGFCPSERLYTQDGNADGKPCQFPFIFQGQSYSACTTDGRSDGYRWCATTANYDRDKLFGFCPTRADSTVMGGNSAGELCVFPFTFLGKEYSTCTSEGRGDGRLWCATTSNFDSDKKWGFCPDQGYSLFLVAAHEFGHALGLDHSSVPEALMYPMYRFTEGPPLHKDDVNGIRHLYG

Biotin-GGSGG-K(5FAM)-QEVYGAMP-K(CPQ2)-C-NH2 [calpain substrate peptide]
activation after incubation with MMP9 (human recombinant MMP-9): did not activate
activation after incubation with α-thrombin (human α-thrombin): did not activate
